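How tested: cells in 96-well plates exposed to compound for 48 hours at five concentrations. TGI: total growth inhibition.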
Tests used:
Assay in all cases: DTP human tumour cell line panel, 48 h
TK-10 renal = test system: TK-10 renal
KM12 colon = test system: KM12 colon
MDA-MB-231 breast = test system: MDA-MB-231 breast
HOP-62 NSCLC = test system: HOP-62 NSCLC
OVCAR-3 ovarian = test system: OVCAR-3 ovarian
HL-60(TB) leukemia = test system: HL-60(TB) leukemia
BT-549 breast = test system: BT-549 breast
PC-3 prostate = test system: PC-3 prostate
ACHN renal = test system: ACHN renal
DU-145 prostate = test system: DU-145 prostate
NCI-H522 lung = test system: NCI-H522 lung
NCI-H460 lung = test system: NCI-H460 lung
T-47D breast = test system: T-47D breast
CAKI-1 renal = test system: CAKI-1 renal

In the case of COC(=O)C1C(=O)C=CN([C@H](C)c2ccccc2)[C@@H]1Cc1ccc(OC)c(OCc2ccccc2)c1I (stereo partly specified), the TGI (TK-10 renal) is reported as 60.4 µM, the TGI (KM12 colon) is reported as 52 µM and the TGI (MDA-MB-231 breast) is reported as 46.7 µM. For the same molecule, the TGI (HOP-62 NSCLC) was 52.4 µM, the TGI (OVCAR-3 ovarian) was 28.2 µM and the TGI (HL-60(TB) leukemia) was 79 µM. The TGI (BT-549 breast) was 38 µM, the TGI (PC-3 prostate) was over 100 µM and the TGI (ACHN renal) was 70 µM. The TGI (DU-145 prostate) was 42.6 µM, the TGI (NCI-H522 lung) was 36.8 µM and the TGI (NCI-H460 lung) was 31.7 µM. It also gave a TGI (T-47D breast) of 60.9 µM and a TGI (CAKI-1 renal) of over 100 µM.
CN(C)CCCN1c2ccccc2Sc2cnccc21 was tested, and the TGI (TK-10 renal) was over 100 µM, the TGI (KM12 colon) was over 100 µM and the TGI (MDA-MB-231 breast) was over 100 µM. It also gave a TGI (HOP-62 NSCLC) of over 100 µM, a TGI (OVCAR-3 ovarian) of over 100 µM and a TGI (HL-60(TB) leukemia) of over 100 µM. The TGI (BT-549 breast) was over 100 µM, the TGI (PC-3 prostate) was over 100 µM and the TGI (ACHN renal) was over 100 µM. It also gave a TGI (DU-145 prostate) of over 100 µM, a TGI (NCI-H522 lung) of over 100 µM and a TGI (NCI-H460 lung) of over 100 µM. It also gave a TGI (T-47D breast) of over 100 µM and a TGI (CAKI-1 renal) of over 100 µM.
With CC(=O)OCCOCn1cnc2c(Cl)nc(Cl)nc21 the TGI (TK-10 renal) was over 100 µM, the TGI (KM12 colon) was 44.1 µM and the TGI (MDA-MB-231 breast) was 29 µM. The TGI (HOP-62 NSCLC) was 36.4 µM, the TGI (OVCAR-3 ovarian) was 27.2 µM and the TGI (HL-60(TB) leukemia) was 6.21 µM. The TGI (BT-549 breast) was 36.4 µM, the TGI (PC-3 prostate) was 36.5 µM and the TGI (ACHN renal) was 30.6 µM. For the same molecule, the TGI (DU-145 prostate) was 36.5 µM, the TGI (NCI-H522 lung) was 4.07 µM and the TGI (NCI-H460 lung) was 35 µM. For the same molecule, the TGI (T-47D breast) was 25.6 µM and the TGI (CAKI-1 renal) was 0.832 µM.
CCOP(=O)(CN1CCNCCNCC1)OCC was tested, and the TGI (TK-10 renal) was over 100 µM, the TGI (KM12 colon) was over 100 µM and the TGI (MDA-MB-231 breast) was over 100 µM. It also gave a TGI (HOP-62 NSCLC) of over 100 µM, a TGI (OVCAR-3 ovarian) of over 100 µM and a TGI (HL-60(TB) leukemia) of over 100 µM. It also gave a TGI (BT-549 breast) of over 100 µM, a TGI (PC-3 prostate) of over 100 µM and a TGI (ACHN renal) of over 100 µM. The TGI (DU-145 prostate) was over 100 µM, the TGI (NCI-H522 lung) was over 100 µM and the TGI (NCI-H460 lung) was over 100 µM. For the same molecule, the TGI (T-47D breast) was over 100 µM and the TGI (CAKI-1 renal) was over 100 µM.
Work on Cc1cccc2c(N)c3cccc(C(=O)NCC[N+](C)(C)Cc4c([N+](=O)[O-])ncn4C)c3nc12 yielded a TGI (TK-10 renal) of over 100 µM, a TGI (KM12 colon) of over 100 µM and a TGI (MDA-MB-231 breast) of over 82.1 µM. It also gave a TGI (HOP-62 NSCLC) of over 50.9 µM, a TGI (OVCAR-3 ovarian) of over 100 µM and a TGI (HL-60(TB) leukemia) of over 44.4 µM. The TGI (BT-549 breast) was over 100 µM, the TGI (PC-3 prostate) was over 100 µM and the TGI (ACHN renal) was over 39.5 µM. The TGI (DU-145 prostate) was over 100 µM, the TGI (NCI-H522 lung) was over 52.9 µM and the TGI (T-47D breast) was over 100 µM. It also gave a TGI (CAKI-1 renal) of 23.9 µM.
O=C1CCCC2(c3ccccc3)Nc3ccccc3N12 (stereo unspecified) was tested, and the TGI (TK-10 renal) was over 100 µM, the TGI (KM12 colon) was over 100 µM and the TGI (MDA-MB-231 breast) was over 100 µM. The TGI (HOP-62 NSCLC) was over 100 µM, the TGI (OVCAR-3 ovarian) was over 100 µM and the TGI (HL-60(TB) leukemia) was over 100 µM. It also gave a TGI (BT-549 breast) of over 100 µM, a TGI (PC-3 prostate) of over 100 µM and a TGI (ACHN renal) of over 100 µM. For the same molecule, the TGI (DU-145 prostate) was over 100 µM, the TGI (NCI-H522 lung) was over 100 µM and the TGI (NCI-H460 lung) was over 100 µM. It also gave a TGI (T-47D breast) of over 100 µM and a TGI (CAKI-1 renal) of over 100 µM.
For Cc1ccc(C)c(COCCOCn2ccc(N)nc2=O)c1, the TGI (TK-10 renal) was over 100 µM, the TGI (KM12 colon) was over 100 µM and the TGI (MDA-MB-231 breast) was over 100 µM. It also gave a TGI (HOP-62 NSCLC) of over 100 µM, a TGI (OVCAR-3 ovarian) of over 100 µM and a TGI (HL-60(TB) leukemia) of over 100 µM. It also gave a TGI (BT-549 breast) of over 100 µM, a TGI (PC-3 prostate) of over 100 µM and a TGI (ACHN renal) of over 100 µM. For the same molecule, the TGI (DU-145 prostate) was over 100 µM, the TGI (NCI-H522 lung) was over 100 µM and the TGI (NCI-H460 lung) was over 100 µM. The TGI (T-47D breast) was over 100 µM and the TGI (CAKI-1 renal) was over 100 µM.
Molecule COc1ccc(C2=Nn3c(nnc(Cc4ccc(Cl)cc4)c3=O)SC2)cc1 has a TGI (TK-10 renal) of over 100 µM, a TGI (KM12 colon) of over 100 µM and a TGI (MDA-MB-231 breast) of over 100 µM. The TGI (HOP-62 NSCLC) was over 100 µM, the TGI (OVCAR-3 ovarian) was 92.2 µM and the TGI (HL-60(TB) leukemia) was over 100 µM. For the same molecule, the TGI (BT-549 breast) was over 100 µM, the TGI (PC-3 prostate) was over 100 µM and the TGI (ACHN renal) was over 100 µM. The TGI (DU-145 prostate) was over 100 µM, the TGI (NCI-H522 lung) was over 100 µM and the TGI (NCI-H460 lung) was over 100 µM. For the same molecule, the TGI (T-47D breast) was over 100 µM and the TGI (CAKI-1 renal) was over 100 µM.

Reference: PubChem BioAssay (NCI)
